Laboratory results published in ChEMBL document CHEMBL1201862, “PubChem BioAssay data set” (2004).
The source made the active and inactive calls.

What was measured:
[1] = viability of PTEN-deleted HCT116 cells – cell-based, HCT116 PTEN knockout, dose response (AID 1047); type: functional;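 note: HCT116 colon tumor cells with PTEN knocked out; cells exposed to compound for 60 hours before readout; potency for loss of cell viability measured by luminescence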
[2] = viability of HCT116 lacking mutant beta-catenin – cell-based, human colon tumor, dose response (AID 1045); type: functional;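 note: HCT116 colon tumor cells with beta catenin knocked out; cells exposed to compound for 60 hours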
[3] = DRD fibroblast viability loss – cell-based, non-viral oncogenic, luminescence, dose response (AID 1934); type: functional; conditions: Homo sapiens
BJ [4] = assay: BJ-TERT-LT-ST fibroblast viability loss – cell-based, RAS-independent, luminescence, dose response (AID 1935); type: functional; conditions: Homo sapiens;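 note: BJ fibroblasts immortalized with TERT plus LT and ST oncogenes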
BJ [5] = assay: cells; type: functional, cell-based; conditions: Homo sapiens
BJ [6] = assay: BJ-TERT fibroblast viability loss – cell-based, RAS-independent, luminescence, dose response (AID 1933); type: functional; conditions: Homo sapiens
[7] = Luminescence Cell-Based Dose Confirmation HTS to Identify Inhibitors of Platelet Dense Granule Release. [Related pubchem assays: 1663 (Primary HTS), 1678 (Summary of Project)]; type: functional
[8] = biological target: Luciferin 4-monooxygenase (Photinus pyralis, UniProt P08659); assay: inhibition of purified Photinus pyralis luciferase – biochemical, luminescence, dose response (AID 1891)
Nonstructural protein 1 = Nonstructural protein 1 (Influenza A virus, UniProt Q194T2); type: functional, Influenza A virus (A/California/07/2009(H1N1))
[9] = biological target: T1, Replicative DNA helicase DnaB (Mycobacterium tuberculosis, UniProt P9WMR3); assay: DnaB intein splicing inhibitors, dose response, biochemical, cell-free fluorescence (AID 449749); type: functional
T1 sequence (P9WMR3 whole entry): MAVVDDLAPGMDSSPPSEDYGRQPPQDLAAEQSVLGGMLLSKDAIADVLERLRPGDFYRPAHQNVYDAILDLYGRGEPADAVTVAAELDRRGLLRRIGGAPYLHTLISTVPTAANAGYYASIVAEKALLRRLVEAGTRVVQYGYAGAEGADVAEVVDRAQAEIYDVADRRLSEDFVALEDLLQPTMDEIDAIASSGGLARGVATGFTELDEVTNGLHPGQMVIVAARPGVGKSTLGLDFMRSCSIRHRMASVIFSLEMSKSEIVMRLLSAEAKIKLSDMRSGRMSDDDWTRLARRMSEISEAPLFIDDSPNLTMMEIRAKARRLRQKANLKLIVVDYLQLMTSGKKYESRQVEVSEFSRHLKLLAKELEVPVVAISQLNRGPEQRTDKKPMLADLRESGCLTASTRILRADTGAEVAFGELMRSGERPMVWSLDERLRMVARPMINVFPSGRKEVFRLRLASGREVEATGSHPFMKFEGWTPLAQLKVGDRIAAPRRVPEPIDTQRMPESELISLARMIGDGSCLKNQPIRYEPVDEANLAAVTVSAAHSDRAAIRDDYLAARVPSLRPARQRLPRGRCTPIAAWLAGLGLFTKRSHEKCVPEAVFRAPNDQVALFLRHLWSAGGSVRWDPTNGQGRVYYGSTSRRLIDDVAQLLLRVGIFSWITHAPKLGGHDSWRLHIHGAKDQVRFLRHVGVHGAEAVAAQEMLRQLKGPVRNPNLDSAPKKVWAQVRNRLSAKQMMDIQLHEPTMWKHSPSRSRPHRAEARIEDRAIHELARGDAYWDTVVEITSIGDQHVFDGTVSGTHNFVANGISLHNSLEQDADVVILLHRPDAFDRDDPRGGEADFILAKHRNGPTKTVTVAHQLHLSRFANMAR

Protein RecA = biological target: T2, Protein RecA (Mycobacterium tuberculosis, UniProt P9WHJ3); assay: Fluorescence Cell-Free Homogeneous Dose Retest to Identify Inhibitors of RecA-Intein Splicing Activity. [Related pubchem assays (depositor defined):AID2097, AID2223, AID489010, AID492950]; type: functional
T2 sequence (P9WHJ3 whole entry): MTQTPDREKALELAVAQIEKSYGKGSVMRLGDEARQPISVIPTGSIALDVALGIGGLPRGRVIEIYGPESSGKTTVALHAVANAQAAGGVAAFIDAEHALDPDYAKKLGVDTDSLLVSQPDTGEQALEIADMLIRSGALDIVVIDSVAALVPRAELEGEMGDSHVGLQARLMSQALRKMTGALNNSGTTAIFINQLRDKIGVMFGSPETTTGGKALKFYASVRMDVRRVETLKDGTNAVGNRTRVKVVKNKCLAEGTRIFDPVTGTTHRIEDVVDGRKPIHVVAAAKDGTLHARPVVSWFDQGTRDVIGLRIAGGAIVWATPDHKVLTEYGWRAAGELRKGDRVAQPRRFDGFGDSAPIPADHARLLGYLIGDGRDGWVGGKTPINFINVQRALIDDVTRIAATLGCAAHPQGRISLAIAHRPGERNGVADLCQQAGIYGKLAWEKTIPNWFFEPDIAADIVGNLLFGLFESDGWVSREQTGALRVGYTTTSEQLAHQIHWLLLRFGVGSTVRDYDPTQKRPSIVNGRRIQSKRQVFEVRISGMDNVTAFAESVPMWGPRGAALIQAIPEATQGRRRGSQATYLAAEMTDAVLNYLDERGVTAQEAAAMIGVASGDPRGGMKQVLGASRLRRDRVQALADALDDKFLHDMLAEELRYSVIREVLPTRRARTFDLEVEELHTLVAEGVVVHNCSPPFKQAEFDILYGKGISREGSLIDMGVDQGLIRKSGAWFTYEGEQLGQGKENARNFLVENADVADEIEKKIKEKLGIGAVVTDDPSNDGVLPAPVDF

[10] = NIH-3T3 fibroblast cytotoxicity, dose response, cytotoxicity control, cell-based, fluorescence, Alamar Blue, secondary assay (AID 2327); type: functional;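 note: NIH-3T3 mouse fibroblasts cultured with fluconazole at 8 µg/mL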
Aminopeptidase N = biological target: T3, Aminopeptidase N (Plasmodium falciparum FcB1/Columbia, UniProt O96935); assay: malaria alanyl aminopeptidase activity blockers – biochemical, fluorogenic H-Leu-NHMec substrate, 1536-well (AID 1445); parameters: species or system Plasmodium falciparum 3D7, 3D7
T3 sequence (O96935 whole entry): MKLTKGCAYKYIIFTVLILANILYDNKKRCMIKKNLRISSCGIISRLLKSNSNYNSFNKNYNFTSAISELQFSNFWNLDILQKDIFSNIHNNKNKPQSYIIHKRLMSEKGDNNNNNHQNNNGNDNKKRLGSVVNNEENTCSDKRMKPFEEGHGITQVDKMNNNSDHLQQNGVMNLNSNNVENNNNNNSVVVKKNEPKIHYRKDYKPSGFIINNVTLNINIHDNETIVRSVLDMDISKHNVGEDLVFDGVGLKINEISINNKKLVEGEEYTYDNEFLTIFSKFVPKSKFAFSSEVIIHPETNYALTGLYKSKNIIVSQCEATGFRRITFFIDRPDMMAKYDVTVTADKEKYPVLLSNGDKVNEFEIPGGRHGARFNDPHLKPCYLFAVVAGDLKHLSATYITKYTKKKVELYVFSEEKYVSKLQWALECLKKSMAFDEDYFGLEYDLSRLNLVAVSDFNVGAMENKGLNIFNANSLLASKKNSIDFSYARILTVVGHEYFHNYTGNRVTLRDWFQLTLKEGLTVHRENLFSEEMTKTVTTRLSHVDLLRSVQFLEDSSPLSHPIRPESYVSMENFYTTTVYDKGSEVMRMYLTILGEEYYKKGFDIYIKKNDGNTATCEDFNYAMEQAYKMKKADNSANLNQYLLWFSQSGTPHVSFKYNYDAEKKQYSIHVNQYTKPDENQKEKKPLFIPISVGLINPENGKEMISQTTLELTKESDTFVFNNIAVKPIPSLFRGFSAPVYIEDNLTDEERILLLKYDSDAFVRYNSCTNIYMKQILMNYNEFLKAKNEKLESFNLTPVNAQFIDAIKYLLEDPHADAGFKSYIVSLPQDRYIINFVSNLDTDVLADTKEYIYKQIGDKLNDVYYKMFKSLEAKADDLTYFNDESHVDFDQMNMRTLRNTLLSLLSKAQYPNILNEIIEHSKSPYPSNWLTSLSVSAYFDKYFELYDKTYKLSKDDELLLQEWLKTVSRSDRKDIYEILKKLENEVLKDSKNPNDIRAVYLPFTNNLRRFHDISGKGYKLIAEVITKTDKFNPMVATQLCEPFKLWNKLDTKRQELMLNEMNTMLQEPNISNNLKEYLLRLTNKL

Vero = assay: cells; type: functional; conditions: Chlorocebus sabaeus
[11] = reduction of Shn3 3'UTR-driven luciferase in osteoblasts – cell-based, Clone20 osteoblasts, firefly luciferase, cherry-picked, dose response (AID 624132); type: functional;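 note: firefly luciferase luminescence from reporter carrying the Shn3 3'UTR in osteoblasts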
[12] = blockers of HIV-1 envelope-mediated cell-cell fusion – cherry-pick, dose response (AID 652057); type: functional, cell-based
[13] = P. falciparum Dd2 growth inhibitors, dose response, SYBR Green, cherry-picked samples (AID 1159567); type: functional, cell-based

Chain of Luciferin 4-monooxygenase (P08659 whole entry): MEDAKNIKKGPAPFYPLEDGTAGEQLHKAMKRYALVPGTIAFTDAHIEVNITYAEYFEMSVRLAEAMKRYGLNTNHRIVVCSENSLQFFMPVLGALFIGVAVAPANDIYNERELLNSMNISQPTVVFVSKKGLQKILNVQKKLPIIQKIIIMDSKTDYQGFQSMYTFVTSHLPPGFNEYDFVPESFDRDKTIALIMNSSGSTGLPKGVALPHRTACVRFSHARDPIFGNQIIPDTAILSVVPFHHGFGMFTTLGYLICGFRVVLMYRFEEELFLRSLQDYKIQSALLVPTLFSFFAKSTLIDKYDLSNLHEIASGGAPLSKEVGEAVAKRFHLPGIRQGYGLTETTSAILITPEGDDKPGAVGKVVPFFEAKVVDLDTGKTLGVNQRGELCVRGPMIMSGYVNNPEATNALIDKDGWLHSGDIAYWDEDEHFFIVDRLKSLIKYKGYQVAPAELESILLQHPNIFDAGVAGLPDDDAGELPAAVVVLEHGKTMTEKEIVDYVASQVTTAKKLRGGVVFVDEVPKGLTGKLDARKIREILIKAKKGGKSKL
Chain of Nonstructural protein 1 (Q194T2 whole entry): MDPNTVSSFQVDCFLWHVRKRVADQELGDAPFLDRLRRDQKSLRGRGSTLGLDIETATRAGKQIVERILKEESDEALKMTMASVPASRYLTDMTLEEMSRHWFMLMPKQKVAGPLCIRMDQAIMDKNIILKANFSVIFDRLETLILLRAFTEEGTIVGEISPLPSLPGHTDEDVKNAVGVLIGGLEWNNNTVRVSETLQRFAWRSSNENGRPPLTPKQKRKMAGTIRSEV

Structure (SMILES): CC1CCCCN1S(=O)(=O)c1ccc(C(=O)Nc2ccccc2-c2nc3ccccc3[nH]2)cc1 (centres undefined)
- EC50 [1]: 17 µM (active)
- EC50 [2]: 25.5 µM (active)

Structure (SMILES): CCCc1nnc(NC(=O)CCC(=O)N2CCN(Cc3ccc(OC)c(F)c3)CC2)s1
- EC50 [3]: > 150 µM (not active)
- EC50 (BJ [4]): > 150 µM (not active)
- EC50 (BJ [5]): > 150 µM (inconclusive)
- EC50 (BJ [6]): 25.9 µM (active)

Structure (SMILES): Cc1ccc2nc(NC(=O)CN3C(=O)NC4(CCCC4)C3=O)sc2c1
- EC50 [7]: > 112 µM (not active)
- EC50 [8]: 80 µM (active)

Structure (SMILES): Cc1cc(N(C)N)nc(NC(=O)NS(=O)(=O)c2ccccc2Cl)n1
- IC50 (Nonstructural protein 1): 5.96 µM (active)

Structure (SMILES): COc1cc(/C=C2\C(=O)N(c3ccc(NC(C)=O)cc3)N=C2c2ccccc2)ccc1O
- AC50 [9]: > 380 µM (inactive)
- EC50 (Protein RecA): > 380 µM (inconclusive)

Structure (SMILES): CC(=O)Nc1cccc(NC(=O)C2CCCN2C(=O)Nc2ccc(Cl)cc2)c1 (centres undefined)
- EC50 [10]: > 160 µM (inactive)
- IC50 (Aminopeptidase N): 84.1 µM (active)

Structure (SMILES): CC1(C)Cc2c(sc3nc(-c4cccs4)n(N)c(=O)c23)CO1
- EC50 [1]: 16.7 µM (active)
- EC50 [2]: 23.9 µM (active)

Structure (SMILES): O=C(/C=C/c1ccc(Cl)cc1Cl)c1cccnc1
- EC50 [1]: 7.26 µM (active)
- CC50 (Vero): > 25 µM (active)
- EC50 [2]: 5.09 µM (active)

Structure (SMILES): CC(C)(C)C(=O)Nc1cc(S(=O)(=O)N2CCCCC2)ccc1N1CCCCC1
- AC50 [11]: 23.1 µM (active)

Structure (SMILES): CC(=O)N1N=C(c2c(-c3ccccc3)c3cc(Br)ccc3[nH]c2=O)CC1c1ccco1 (centres undefined)
- IC50 (Aminopeptidase N): 58.8 µM (active)

Structure (SMILES): CCOc1ccccc1N1CC(C(=O)Nc2nccs2)CC1=O (centres undefined)
- EC50 [7]: > 112 µM (not active)
- EC50 [8]: > 112 µM (not active)

Structure (SMILES): COc1ccc(C(=O)Nc2ccccc2C(=O)N(Cc2ccco2)C(C(N)=O)C(C)C)cc1 (centres undefined)
- EC50 [1]: 6.76 µM (active)
- EC50 [2]: 9.3 µM (active)

Structure (SMILES): CCC(C)(C)NC(=O)CN(Cc1ccc2c(c1)OCO2)C(=O)CCC(=O)Nc1ccccn1
- IC50 (Aminopeptidase N): 67 µM (active)

Structure (SMILES): O=C(Nc1ccc(-c2nc3ccccc3o2)cc1)C1CCCO1 (centres undefined)
- EC50 [7]: 2.58 µM (active)
- EC50 [8]: 2.6 µM (active)

Structure (SMILES): O=C(CNCc1ccccn1)Nc1ccc([N+](=O)[O-])cc1C(=O)Nc1ccccc1F
- IC50 (Nonstructural protein 1): 5.49 µM (active)

Structure (SMILES): COc1cc(C(c2sc3nc(C)nn3c2O)N2CCOCC2)cc(OC)c1OC (centres undefined)
- EC50 [7]: 18.6 µM (active)
- EC50 [8]: > 112 µM (not active)

Structure (SMILES): COc1ccccc1C(=O)N1CCN(c2cccc(Cl)c2)CC1
- EC50 [3]: 1.37 µM (active)
- EC50 (BJ [4]): 0.833 µM (inconclusive)
- EC50 (BJ [5]): 38.6 µM (inconclusive)
- EC50 (BJ [6]): 1.79 µM (active)

Structure (SMILES): COc1cc(/C=C/C(=O)c2cccc([N+](=O)[O-])c2)cc(OC)c1OC
- EC50 [1]: 3.46 µM (active)
- EC50 [2]: 2.7 µM (active)

Structure (SMILES): COc1cc(OC)c(-c2nnc3n(CCc4ccccc4)c(=O)c4ccccc4n23)cc1OC
- EC50 [7]: > 112 µM (not active)
- EC50 [8]: > 112 µM (not active)

Structure (SMILES): CCCOc1ccc(/C=N/Nc2ccccc2[N+](=O)[O-])c(O)c1
- EC50 [3]: 10.1 µM (active)
- EC50 (BJ [4]): > 150 µM (inconclusive)
- EC50 (BJ [5]): 12.2 µM (active)
- EC50 (BJ [6]): 11.3 µM (active)

Structure (SMILES): C[C@H](CO)N1C[C@H](C)[C@H](CN(C)S(=O)(=O)c2ccc(C#N)cc2)Oc2ncc(/C=C/c3ccccc3)cc2C1=O
- AC50 [12]: 7.61 µM (active)

Structure (SMILES): C/C(CC(=O)Nc1cc(C)ccn1)=N\NC(=O)c1cccc(C)c1
- AC50 [9]: 9.58 µM (active)
- EC50 (Protein RecA): 4.04 µM (active)

Structure (SMILES): CCCc1cn([C@H]2C[C@@H]3O[C@@H](CO)CC[C@@H]3O[C@@H]2CCc2ccc(-c3ccc(OC)cc3)cc2)nn1
- AC50 [13]: 6.63 µM (active)

Structure (SMILES): COc1cccc(-c2ccc3c(c2)[C@H]2[C@H](CCN2C(=O)C2CCCCC2)[C@@H](CO)N3)c1
- AC50 [13]: 4.95 µM (active)

Structure (SMILES): O=C1Nc2ccccc2Nc2ncccc21
- EC50 [7]: > 112 µM (not active)
- EC50 [8]: > 112 µM (not active)
